Patent US6245817A, “NPY5 receptor antagonists and methods for using same” (Bayer Corporation, priority 1999, dated 2001)
Structures can show the parent of a compound that is named as a salt.

Legend:
Rat NPY5 Receptor = biological target: T1, Rat NPY5 Receptor (Rattus norvegicus, UniProt Q63634); assay: Rat NPY5 Receptor Binding Assay; details: for IC50: [125I]PYY, read-out: rNPY5 IC50
T1 sequence (Q63634 1-445): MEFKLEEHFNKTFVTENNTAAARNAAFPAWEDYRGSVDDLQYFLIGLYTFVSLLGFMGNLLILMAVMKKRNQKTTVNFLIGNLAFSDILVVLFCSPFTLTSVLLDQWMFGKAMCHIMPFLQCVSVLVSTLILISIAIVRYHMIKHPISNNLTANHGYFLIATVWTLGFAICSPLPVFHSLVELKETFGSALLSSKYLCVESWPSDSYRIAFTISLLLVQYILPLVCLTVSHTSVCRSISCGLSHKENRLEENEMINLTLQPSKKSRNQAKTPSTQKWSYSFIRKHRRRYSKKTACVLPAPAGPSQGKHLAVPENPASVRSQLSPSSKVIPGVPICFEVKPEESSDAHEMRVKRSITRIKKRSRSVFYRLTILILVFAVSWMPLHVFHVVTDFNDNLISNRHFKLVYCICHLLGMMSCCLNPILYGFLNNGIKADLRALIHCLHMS

Human NPY4/PP1 receptor = Human NPY4/PP1 receptor (Homo sapiens, UniProt P50391); assay: Human NPY4/PP1 Receptor Binding Assay; details: [125I]human PP; read-out: hNPY4 IC50
Sequence of Human NPY4/PP1 receptor (P50391 whole entry): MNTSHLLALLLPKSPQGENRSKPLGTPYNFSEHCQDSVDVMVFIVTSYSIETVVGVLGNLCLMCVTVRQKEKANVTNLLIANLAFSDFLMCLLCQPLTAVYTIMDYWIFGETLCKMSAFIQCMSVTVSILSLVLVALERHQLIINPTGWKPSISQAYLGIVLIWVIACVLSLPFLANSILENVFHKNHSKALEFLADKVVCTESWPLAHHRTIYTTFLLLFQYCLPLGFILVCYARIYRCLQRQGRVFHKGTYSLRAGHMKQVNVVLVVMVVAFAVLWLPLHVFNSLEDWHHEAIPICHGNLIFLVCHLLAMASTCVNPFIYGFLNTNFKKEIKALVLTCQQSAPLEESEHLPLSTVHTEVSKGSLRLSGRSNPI

Human NPY2 receptor = biological target: T2, Human NPY2 receptor (Homo sapiens, UniProt P49146); assay: Human NPY2 Receptor Binding Assay; details: [125I]PYY; read-out: hPPY2 IC50
T2 sequence (P49146 1-381): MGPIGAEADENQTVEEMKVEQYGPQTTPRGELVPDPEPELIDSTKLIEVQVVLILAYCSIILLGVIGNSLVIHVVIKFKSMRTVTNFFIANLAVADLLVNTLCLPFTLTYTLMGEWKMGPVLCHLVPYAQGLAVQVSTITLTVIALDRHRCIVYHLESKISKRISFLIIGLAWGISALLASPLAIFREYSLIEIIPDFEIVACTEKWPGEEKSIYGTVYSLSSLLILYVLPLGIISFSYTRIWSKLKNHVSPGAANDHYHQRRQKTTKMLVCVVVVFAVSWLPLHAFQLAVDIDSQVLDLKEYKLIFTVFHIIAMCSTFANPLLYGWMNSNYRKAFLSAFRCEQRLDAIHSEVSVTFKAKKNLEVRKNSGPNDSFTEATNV

Human NPY5 Receptor = biological target: T3, Human NPY5 Receptor (Homo sapiens, UniProt Q15761); assay: Human NPY5 Receptor Binding Assay; details: [125I]PYY; read-out: hNPY5 IC50
T3 sequence (Q15761 1-445): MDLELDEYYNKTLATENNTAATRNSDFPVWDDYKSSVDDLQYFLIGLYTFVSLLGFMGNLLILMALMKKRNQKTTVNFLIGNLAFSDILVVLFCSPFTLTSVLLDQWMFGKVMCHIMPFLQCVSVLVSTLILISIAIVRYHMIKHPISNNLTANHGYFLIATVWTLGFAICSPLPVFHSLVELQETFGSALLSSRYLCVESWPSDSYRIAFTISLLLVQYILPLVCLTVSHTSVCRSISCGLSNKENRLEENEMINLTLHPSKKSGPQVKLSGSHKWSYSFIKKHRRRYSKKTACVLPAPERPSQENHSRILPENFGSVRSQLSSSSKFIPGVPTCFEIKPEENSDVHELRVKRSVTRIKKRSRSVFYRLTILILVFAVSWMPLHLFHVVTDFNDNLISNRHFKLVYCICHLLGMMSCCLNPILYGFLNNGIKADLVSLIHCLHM

Human NPY1 Receptor = biological target: T4, Human NPY1 Receptor (Homo sapiens, UniProt P25929); assay: Human NPY1 Receptor Binding Assay; details: SK-N-MC cells, [125I]PYY; read-out: hNPY1 IC50
T4 sequence (P25929 1-384): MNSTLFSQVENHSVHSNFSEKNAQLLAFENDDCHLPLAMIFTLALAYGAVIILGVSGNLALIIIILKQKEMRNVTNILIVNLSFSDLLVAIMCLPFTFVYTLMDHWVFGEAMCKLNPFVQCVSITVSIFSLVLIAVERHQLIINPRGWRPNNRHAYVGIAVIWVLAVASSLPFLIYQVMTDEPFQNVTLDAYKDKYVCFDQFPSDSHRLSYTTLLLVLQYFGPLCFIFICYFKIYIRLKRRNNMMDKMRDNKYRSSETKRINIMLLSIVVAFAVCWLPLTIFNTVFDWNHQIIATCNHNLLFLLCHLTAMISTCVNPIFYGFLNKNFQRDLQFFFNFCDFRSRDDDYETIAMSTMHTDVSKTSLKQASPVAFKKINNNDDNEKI

SMILES | IC50 (Rat NPY5 Receptor) | IC50 (Human NPY4/PP1 receptor) | IC50 (Human NPY2 receptor) | inhibition at 10 µM (Rat NPY5 Receptor; 10 μM, values marked *, read-out: rNPY5 percent inhibition at 10 μM) | IC50 (Human NPY5 Receptor) | IC50 (Human NPY1 Receptor)
Cc1ccnc(SCC(=O)Nc2ccc(C3CCCCC3)cc2)n1 [Compound 5, N-(4-Cyclohexyl-phenyl)-2-(4-methyl-pyrimidin-2-ylsultanyl)-acetamide Hydrochloride] | > 1 µM | > 5 µM | > 5 µM | – | – | –
O=C(CSc1ncc[nH]1)Nc1ccc(C2CCCCC2)cc1 [Compound 136, N-(4-Cyclohexyl-phenyl)-2-(1H-imidazol-2-ylsulfanyl)-acetamide] | – | – | > 5 µM | 95% | 0.11 µM | –
Cc1cc(-c2nnc(SCC(=O)Nc3ccccc3)n2C)no1 [Compound 150, 2-[4-Methyl-5-(5-methyl-isoxazol-3-yl)-4H-[1,2,4]triazol-3-ylsulfanyl]-N-phenyl-acetamide, reference compound] | > 10 µM | > 5 µM | – | – | > 10 µM | > 5 µM
CC(C)c1ccc(NC(=O)CSc2nnc(CSc3cccs3)n2C)cc1 [Compound 153, reference compound] | > 10 µM | > 5 µM | – | – | > 10 µM | > 5 µM
CCn1c(SCC(=O)Nc2cc(C)ccc2OC)nnc1C(F)(F)F [Compound 157, N-(2-Methoxy-5-methyl-phenyl)-2-(4-ethyl-5-trifluoromethyl-4H-[1,2,4]triazol-3-ylsulfanyl)-acetamide, reference compound] | > 10 µM | > 5 µM | – | – | > 10 µM | > 5 µM
CC(C)c1ccc(NC(=O)CSc2nnc(Cc3ccsc3)n2C)cc1 [Compound 158, N-(4-isopropyl-phenyl)-2-(4-methyl-5-thiophen-3-ylmethyl-4H-[1,2,4]triazol-3-ylsulfanyl)-acetamide, reference compound] | > 10 µM | > 5 µM | – | – | > 10 µM | > 5 µM
CSc1sc(-c2nnc(SCC(=O)Nc3ccc(Cl)cc3)n2C)c2c1C=CCC2 [Compound 159, N-(4-Chloro-phenyl)-2-[4-methyl-5-(3-methylsulfanyl-6,7-dihydro-benzo[c]thiophen-1-yl)-4H-[1,2,4]triazol-3-ylsulfanyl]-acetamide, reference compound] | > 10 µM | > 5 µM | – | – | > 10 µM | > 5 µM
Cn1c(SCC(=O)Nc2ccc(Cl)cc2)nnc1-c1ncc(C(F)(F)F)cc1Cl [Compound 160, reference compound] | > 10 µM | > 5 µM | – | – | > 10 µM | > 5 µM
COC(Cn1c(SCC(=O)Nc2ccc(Cl)cc2)nnc1-c1ccc(Cl)cc1)OC [Compound 161, N-(4-Chloro-phenyl)-2-[5-(4-chloro-phenyl)-4-(2,2-dimethoxy-ethyl)-4H-[1,2,4]triazol-3-ylsulfanyl]-ecetamide, reference compound] | > 10 µM | > 5 µM | – | – | > 10 µM | > 5 µM
COC(Cn1c(SCC(=O)Nc2ccc(Cl)cc2)nnc1-c1ccccc1)OC [Compound 162, N-(4-Chloro-phenyl)-2-(4-(2,2-dimethoxy-ethyl)-5-phenyl-4H-[1,2,4]triazol-3-ylsulfanyl]-acetamide, reference compound] | > 10 µM | > 5 µM | – | – | > 10 µM | > 5 µM
COC(Cn1c(SCC(=O)Nc2ccc(C(C)C)cc2)nnc1-c1ccccc1)OC [Compound 163, 2-[4-(2,2-Dimethoxy-ethyl)-5-phenyl-4H-[1,2,4]triazol-3-ylsulfanyl]-N-(4-isopmpyl-phenyl)-acetamide, reference compound] | > 10 µM | > 5 µM | – | – | > 10 µM | > 5 µM
Cn1cnnc1SCC(=O)Nc1ccc(C(C)(C)C)cc1 [Compound 164, N-(4-tert-Butyl-phenyl)-2-(4-methyl-4H-[1,2,4]triazol-3-ylsulfanyl)-acetamide, reference compound] | 1.7 µM | > 5 µM | – | – | 1.6 µM | > 5 µM
CC(C)c1ccc(NC(=O)CSc2nc3cc(C(F)(F)F)ccc3n2C(C)C)cc1 [Compound 165, N-(4-Isopropyl-phenyl)-2-(1-isopropyl-5-trifluoromethyl-1H-benzolmidazol-2-ylsulfanyl)-acetamide, reference compound] | > 10 µM | > 5 µM | – | – | > 10 µM | > 5 µM
COC(Cn1c(SCC(=O)Nc2ccc(C(C)C)cc2)nnc1-c1ccc(Cl)cc1)OC [Compound 166, 2-[5-(4-Chloro-phenyl)-4-(2,2-dimethoxy-ethyl)-4H-[1,2,4]triazol-3-ylsulfanyl]-N-(4-isopropyl-phenyl)-acetamide, reference compound] | > 10 µM | > 5 µM | – | – | > 10 µM | > 5 µM
Cn1c(CC2Sc3ccccc3NC2=O)nnc1SCC(=O)Nc1ccc(Cl)cc1 (stereo not drawn) [Compound 167, reference compound] | > 10 µM | > 5 µM | – | – | > 10 µM | > 5 µM
Cn1c(Cc2ccsc2)nnc1SCC(=O)Nc1ccc(Cl)cc1 [Compound 168, N-(4-Chloro-phenyl)-2-(4-methyl-5-thiophen-3-ylmethyl-4H-[1,2,4]triazol-3-ylsulfanyl)-acetamide, reference compound] | > 10 µM | > 5 µM | – | – | > 10 µM | > 5 µM
Cc1cc(-c2nc(C)c(-c3nnc(SCC(=O)Nc4ccc(C(C)C)cc4)n3C)s2)no1 [Compound 177, N-(4-isopropyl-phenyl)-2-(4-methyl-5-[4-methyl-2-(5-methyl-isoxazol-3-yl)-thiazol-5-yl]-4H-[1,2,4]-triazol-3-ylsulfanyl]-acetamide, reference compound] | – | > 5 µM | > 5 µM | – | > 10 µM | –
CCCCCCCCCCCc1nnc(SCC(=O)Nc2ccc(Cl)cc2)n1-c1ccccc1C(F)(F)F [Compound 178, N-(A-Chloro-phenyl)-2-[4-(2-trifluoromethyl-phenyl)-5-undecyl-4H-[1,2,4]triazol-3-ylsulfanyl]-acetamide, reference compound] | – | > 5 µM | > 5 µM | – | > 10 µM | –
CCCCCCCCCCCc1nnc(SCC(=O)Nc2ccc(C(C)C)cc2)n1-c1ccccc1C(F)(F)F [Compound 179, reference compound] | – | > 5 µM | > 5 µM | – | > 10 µM | –
CC(C)n1c(SCC(=O)Nc2ccc(Cl)cc2)nc2cc(C(F)(F)F)ccc21 [Compound 180, N-(4-Chloro-phenyl]-2-(1-isopropyl-5-trifluoromethy-1H-benzolmidazol-2-ylsulfanyl)-acetamide, reference compound] | – | > 5 µM | > 5 µM | – | > 10 µM | –
CCCCCn1c(O)nnc1SCC(=O)Nc1ccc(Cl)cc1 [Compound 181, N-(4-Chloro-phenyl)-2-(5-hydroxy-4-pentyl-4H-[1,2,4]triazo-3-ylsulfanyl)-acetamide, reference compound] | – | > 5 µM | > 5 µM | – | > 10 µM | –
Cc1ccc(SCC(=O)Nc2ccc(C3CCCCC3)cc2)cc1 [Compound 183, reference compound] | 1.2 µM | > 5 µM | > 5 µM | – | 1.3 µM | –
